EP0441252B1, “Alkaline phosphatase enzymes having improved specific activity for use in indicator reagents” (ABBOTT LABORATORIES, priority 1990, dated 1991)

Assays:
Assay in all cases: Kinetic constants (Km) of purified alkaline phosphatase
[1] = system: O=[N+]([O-])c1ccc(OP(=O)(O)O)cc1; assay type: biochemical, E. coli; details: other: Table 1; substrate not given; pH 8.0; 25.0 °C
[2] = target: E. coli alkaline phosphatase variant pMA115, Asp^101 > Ser (Escherichia coli, UniProt P00634, D123S, form not given); details: Table 1; substrate not given
[3] = target: E. coli alkaline phosphatase variant pMA116, Lys^328 > Arg / Val^99 > Ala (Escherichia coli, UniProt P00634, form not given/K350R/V121A); details: Table 1; substrate not given
Sequence of E. coli alkaline phosphatase variant pMA116, Lys^328 > Arg / Val^99 > Ala (P00634 22-471 K350R/V121A): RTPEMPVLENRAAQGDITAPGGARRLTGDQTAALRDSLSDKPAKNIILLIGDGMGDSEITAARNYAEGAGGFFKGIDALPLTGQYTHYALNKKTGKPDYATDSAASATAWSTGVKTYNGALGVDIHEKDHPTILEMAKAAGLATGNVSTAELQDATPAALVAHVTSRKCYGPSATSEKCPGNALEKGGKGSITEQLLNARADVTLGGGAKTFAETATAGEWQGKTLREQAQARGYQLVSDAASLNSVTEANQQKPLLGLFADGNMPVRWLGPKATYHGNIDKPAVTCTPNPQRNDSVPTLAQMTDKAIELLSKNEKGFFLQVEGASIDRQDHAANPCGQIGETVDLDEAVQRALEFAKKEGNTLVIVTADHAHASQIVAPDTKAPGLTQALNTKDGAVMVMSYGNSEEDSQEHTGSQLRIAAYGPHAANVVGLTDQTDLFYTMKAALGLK

Sequence of E. coli alkaline phosphatase variant pMA115, Asp^101 > Ser (P00634 22-471 D123S): as the sequence (P00634 22-471 K350R/V121A) above, with A100V, D102S, R329K counted along it

Row | Compound | Km [1] [µM] | Km [2] [µM] | Km [3] [µM]
1 | E. coli alkaline phosphatase variant pMA110, Val^377 > Ala / Ser^415 > Gly (Escherichia coli K-12; S437G/V399A) | 23 |  | 
2 | O=[N+]([O-])c1ccc(OP(=O)(O)O)cc1 [pNPP, p-nitrophenyl phosphate] |  | 56 | 74
